Results: ChEMBL document CHEMBL1145699, “Bioactive Terpenoids from Octocorallia. 3. A New Eunicellin-Based Diterpenoid from the Soft Coral Cladiella sphaeroides” (J Nat Prod, 1997)

Test system: Artemia salina
Experiment: Toxicity against Artemia salina at 30 ppm
Assay type: organism-based
Conditions: in vivo; call rule not given here

`C=C1CC[C@H](C(C)C)[C@@H]2[C@H]1[C@@H]1CC(=C)[C@@H](O)CC[C@](C)(O)[C@H]2O1` [CLADIELLISIN] was tested, and the Activity was “Not Active”.
